# Measurements as given in US20120101121A1, “DRUG DEMONSTRATING ANXIOLYTIC EFFECT BASED ON HYDROGENATED PYRIDO (4,3-B) INDOLES, ITS PHARMACOLOGICAL COMPOUND AND APPLICATION METHOD” (Medivation Neurology ,Inc., priority 2007, published 2012).
# How the values were obtained:
# [1] = system: outbred white male rats; test: Vogel conflict situation test (punishable drinkings); assay type: in vivo, rat; details: for No. of punishable drinkings: 40 min before test, 10 min registration
# Method: 93-113). Such conflict situations most frequently lead to stress and neurotic diseases.
# The tests were conducted using outbred white male rats with body weights between 220 g and 250 g. […] The conflict situation was created by suppressing the drinking reflex during water consumption from the drinking tube using algesic electric stimulus (i.e., electric shock causing pain). Thus, the Vogel conflict method is based on the conflict of two motivations: drinking and defensive. Thus, the animal fears punishment when attempting to satisfy its thirst, and that fear suppresses typical animal behavior. The animal cannot satisfy its thirst, creating an imbalance between what is desirable and what is real, thereby resulting in a stressful situation, accompanied by anxiety and fear of receiving an additional algesic electric stimulus. If a test compound has anxiolytic effect, it will enable the animal to overcome anxiety and fear of the punishment factor, restoring the ability to drink despite the possibility of receiving additional algesic electric stimuli, measured as an increase in incidents of punishable responses, i.e., drinking, despite the continued risk of receiving algesic electric stimuli.
# The experimental setup consists of three parts: 4 experimental chambers, an electronic unit and a counting device. The experimental chamber measures 275×275×450 mm and is made of Plexiglas. It is installed on a standard electrode floor made of 4 mm diameter stainless steel rods spaced by 8-10 mm apart. Attached to the side wall of each chamber is a standard drinking tube attached to a glass container including a stainless steel nipple. In the device, the drinking tube is installed within common space of the chamber, not in the darkened section. The nipple extends 2 cm into the chamber at a height of 5 cm from the floor. The reason for such arrangement is that once exposed to a new environment, the animals instinctively attempt to hide in the dark section, and therefore may accidentally find a drinking tube, not as a consequence of purposeful search to satisfy the motivation. The electrode floor and the nipple of the drinking tube are connected to the electronic unit. The electronic unit contains current stabilizers (one per channel, which provides the possibility of independent current regulation), output signal generators for the counting device and delay generators for supplying punishing current to the drinking tube during the day of the experiment. That arrangement permits registration of non-punishable drinkings while establishing a drinking habit (trainings without supplying current to the drinking tubes), administration of a punishment current, and recordation of signals from punishable drinkings during the experiment.
# The counting device enables registration of non-punishable drinkings during training and punishable drinkings during the experiment. Registration of readings was conducted using Pentium III personal computer with a 550 MHz C.P.U., a special device for converting output signals from the electronic unit into standard pulses suitable for inputting to the computer via a serial port, and a program written in BASIC (Beginner's All-Purpose Symbolic Instruction Code) for recording events and time intervals into disc files. The data accumulated in these files was later analyzed with the statistical package Statistica® for Windows®.
# The experiment was conducted for 3 days. On the first day, the animals were completely deprived of water. On the second day, i.e., after 24-hours without water, animals were allowed to establish a habit of taking water from the drinking tube. To achieve this, animals were placed in the experimental chamber for 5 minutes. Typically, each animal surveyed the chamber and after a period of time found a drinking tube and started to drink. On the […] day, a weak current of 50 μA was applied to the drinking tube and the chamber floor. […]
# [2] = system: SAM-P/10 mice; test: Elevated plus-maze in SAM-P/10 mice with genetically determined anxiety; assay type: in vivo, mouse; details: 11-month old SAM-P/10 mice; for Latent time / Number of entries into bright arms / Number of entries into dark arms / Time in bright arms / Total number of crossings: 40 min prior to testing, 5 min observation
# Text: One of the modern methods of studying the anxiolytic effect of drugs uses a mouse strain with an increased level of anxiety. This study utilized mice of the SAM-P/10 line (Takeda, T., et al., “Senescence-Accelerated Mouse (SAM): A Novel Murine Model of Accelerated Senescence,” J. Amer. Geriatr. Soc., 1991, v. 39, pp. 911-919) weighing between 26 g and 31 g, in which, among other changes, a genetically determined anxiety is observed. […] Those symptoms actively accumulate beginning from the age of 6-months (accelerated aging) (Miyamoto, M., “Indicators of age-related behavioral changes in Senescence-Accelerated Mouse SAMP8 and SAMP10,” Exp. Gerontol., 1997, v. 32, pp. 139-148; and Shimada, A., et al., “Age-related deterioration in conditional avoidance task in the SAM-P/10 mouse, an animal model of spontaneous brain atrophy,” Brain Res., 1993, v. 608, pp. 266-272).
# This study utilized SAM-P/10 (Senescence-Accelerated Mouse P10) mice in two age groups—3-months and 11-months old. A group of 3-month old animals and a group of 11-month old animals were each divided into three subgroups: one group received Dimebon at a dose of 0.05 mg/kg, the second group received Dimebon at a dose of 2 mg/kg, and the third group received physiological saline. All substances were administered intraperitoneally 40 minutes prior to testing in the amount of 0.1 ml per 10 g of mouse weight. This study was conducted during the first half of the day from 10:00 a.m. to 2:00 p.m.
# The maze is elevated 30 cm off the floor. […] Time spent by mice in the open arms of the maze was used as a main indicator of anxiety level.
# [3] = system: AMPA receptors; details: cerebral neurons in rats; cited from earlier work
# [4] = system: NMDA receptors; details: cerebral neurons in rats; cited from earlier work
# [5] = system: white outbred male rats; test: Open field test under stress; details: for Exits to the center of the field / Horizontal activity / Surveyed holes / Vertical activity: 40 min after dosing, 3 min observation
# Method: The “open field” test uses a method of creating stress based on a rat's fear of new surroundings, open space and bright illumination.
# An open field setup used in this study consisted of a one meter square box (1 m×1 m×1 m) with a clear top. The floor of the chamber was uniformly divided by lines into 9 squares, with 16 2.5 cm diameter holes. Before the experiment, rats were kept in the dark for 10 minutes, after which they were placed onto one of the peripheral squares of the open field. […] During the experiment the following information was recorded: the number of crossed squares on the periphery and in the center (separately), the number of vertical stands, the number of times holes were surveyed, and the number of exits to the center of the open field.
# The main indicator of anxiolytic effect of the drugs was the measure of number of exits by the rat to the center of illuminated field. Increase or decrease in the number of horizontal or vertical movements reflected sedative or stimulating effect of the drug, while the number of holes surveyed reflects orientation-investigative behavior of the rat.
# Experiments were conducted using white outbred male rats weighing 240 g to 280 g. Before the beginning of the test, experimental animals were randomly separated into groups containing at least 10 rats. […] Rats in the control group received 0.2 ml water per 100 g mass administered intraperitoneally. Data was recorded beginning 40 minutes after administering the compounds.
# [6] = system: white outbred male rats; test: Elevated plus-maze (EPM) in rats; details: for Latent time / Number of entries into bright arms / Number of entries into dark arms / Time in bright arms / Total number of crossings: 40 min after dosing, 5 min observation
# Method: The model is based on stress and fear, which appear in animals while displaying orientation-investigative behavior and burrowing reflex under the complicated conditions of elevated plus-maze (novelty of surroundings, fear of height and illumination).
# EPM for rats is performed in a chamber consisting of four compartments formed by the crossing of two strips measuring 50×10 cm. Two opposing compartments have vertical walls 40 cm high (protected dark arms), while two others (unprotected open bright arms) are free from protective walls. The maze is elevated 50 cm off the floor. At the center of the chamber where the two strips cross, there is a central platform measuring 10×10 cm. Rats were placed on the central platform with their tails facing an open bright arm. Time remaining on the central platform, time spent by the animals inside the open arms, and the number of entries into open and closed arms were recorded. The total observation time for each animal was 5 minutes. The main criterion of anxiolytic effect is the measure of time spent in the open bright arm of the setup. The number of crossings the central platform (number of entries into the dark and bright arms of the maze and the sum thereof) was used to estimate the effect of compounds on orientation-investigative behavior and motion activity of rats.
# Experiments were conducted using white outbred male rats weighing 240 g to 280 g. Before beginning the test, experimental animals were randomly separated into groups of at least 10 rats. […] Rats in the control group received 0.2 ml water per 100 g mass administered intraperitoneally. Data was recorded beginning forty minutes after administration of the compounds.
structure (smiles),measurement,setting,value
"Cc1ccc2c(c1)c1c(n2CCc2ccc(C)nc2)CCN(C)C1 [Dimebon, 2,8-dimethyl-5-[2-(6-methyl-3-pyridyl)ethyl]-2,3,4,5-tetrahydro-1H-pyrido[4,3-b]indole]",No. of punishable drinkings,[1]; 0.05 mg/kg i.p.,171.31 ± 15.67
same,No. of punishable drinkings,[1]; 0.1 mg/kg i.p.,261.18 ± 29.74
same,No. of punishable drinkings,[1]; 2.0 mg/kg i.p.,354.25 ± 32.49
same,No. of punishable drinkings,[1]; 5.0 mg/kg i.p.,405.33 ± 26.35
same,Change in punishable drinkings versus control (in words),[1]; dose range 0.1 to 5 mg/kg i.p.,statistically significant increase
same,Sedative and muscle relaxant side effects (in words),[1]; doses 0.1-5.0 mg/kg,lacks the sedative and muscle relaxant side effects
same,"Time spent in the open, unprotected arms relative to control (in words)",[2]; 0.05 mg/kg,doubled
same,Latent time,[2]; 0.05 mg/kg i.p.,7.5 ± 1.5 s
same,Number of entries into bright arms,[2]; 0.05 mg/kg i.p.,1.9 ± 1.0
same,Number of entries into dark arms,[2]; 0.05 mg/kg i.p.,5.86 ± 1.53
same,Time in bright arms,[2]; 0.05 mg/kg i.p.,8.7 ± 3.3 s
same,Total number of crossings,[2]; 0.05 mg/kg i.p.,11.7 ± 1.5
same,Increase in the number of entries into the open arms,[2]; 2 mg/kg,more than 4 fold
same,Increase in the time spent in the open arms,[2]; 2 mg/kg,more than 4 fold
same,Latent time,[2]; 2.0 mg/kg i.p.,6.0 ± 1.4 s
same,Number of entries into bright arms,[2]; 2.0 mg/kg i.p.,4.2 ± 1.1
same,Number of entries into dark arms,[2]; 2.0 mg/kg i.p.,7.10 ± 3.21
same,Time in bright arms,[2]; 2.0 mg/kg i.p.,17.7 ± 5.2 s
same,Total number of crossings,[2]; 2.0 mg/kg i.p.,18.1 ± 5.3
same,Effect on transmembrane currents caused by activation of the AMPA receptors,[3],potentiates
same,Effect on NMDA receptors,[4],blocking
same,Exits to the center of the field,[5]; 0.1 mg/kg i.p.,0.8 ± 0.3
same,Horizontal activity,[5]; 0.1 mg/kg i.p.,21.7 ± 5.9
same,Surveyed holes,[5]; 0.1 mg/kg i.p.,12.3 ± 1.7
same,Vertical activity,[5]; 0.1 mg/kg i.p.,7.8 ± 1.3
same,Exits to the center of the field,[5]; 2 mg/kg i.p.,1.5 ± 0.2
same,Horizontal activity,[5]; 2 mg/kg i.p.,20.3 ± 6.1
same,Surveyed holes,[5]; 2 mg/kg i.p.,11.2 ± 2.6
same,Vertical activity,[5]; 2 mg/kg i.p.,6.9 ± 3.2
same,Exits to the center of the field,[5]; 5 mg/kg i.p.,2.2 ± 0.3
same,Horizontal activity,[5]; 5 mg/kg i.p.,19.2 ± 2.4
same,Surveyed holes,[5]; 5 mg/kg i.p.,13.5 ± 1.9
same,Vertical activity,[5]; 5 mg/kg i.p.,9.3 ± 2.4
same,Effect on number of horizontal and vertical movements and surveyed holes (in words),"[5]; doses of 0.1, 2 and 5 mg/kg",did not cause a decrease
same,Anxiolytic effect in the open field test (in words),[5]; doses of 2 and 5 mg/kg,"significant, pronounced anxiolytic effect"
same,Time spent inside the open arms relative to control,[6]; 0.1 mg/kg i.p.,nearly five times as long as the control
same,Latent time,[6]; 0.1 mg/kg i.p.,3.43 ± 0.53 s
same,Number of entries into bright arms,[6]; 0.1 mg/kg i.p.,1.86 ± 1.00
same,Number of entries into dark arms,[6]; 0.1 mg/kg i.p.,5.86 ± 1.53
same,Time in bright arms,[6]; 0.1 mg/kg i.p.,20.00 ± 7.75 s
same,Total number of crossings,[6]; 0.1 mg/kg i.p.,7.71 ± 2.25
same,Increase in the number of entries into the open arms,[6]; 2 mg/kg i.p.,more than twice
same,Latent time,[6]; 2.0 mg/kg i.p.,2.93 ± 0.41 s
same,Number of entries into bright arms,[6]; 2.0 mg/kg i.p.,4.25 ± 1.18
same,Number of entries into dark arms,[6]; 2.0 mg/kg i.p.,7.10 ± 3.21
same,Time in bright arms,[6]; 2.0 mg/kg i.p.,26.34 ± 8.12 s
same,Total number of crossings,[6]; 2.0 mg/kg i.p.,11.60 ± 3.30
same,Increase in total number of crossings,"[6]; 2 mg/kg i.p., P≦0.05",2 times
"CN1C(=O)CN=C(c2ccccc2)c2cc(Cl)ccc21 [Diazepam ®, reference compound]",No. of punishable drinkings,[1]; 2.0 mg/kg i.p.,372.71 ± 27.81
same,Side effects at the anxiolytic dose (in words),[1]; therapeutic dose of 2 mg/kg,"sedation, reduction in motion activity and impaired coordination"
same,Effect on horizontal and vertical motion activity within the open field (in words),[5]; 2 mg/kg,significantly suppressed
same,Exits to the center of the field,[5]; 2 mg/kg i.p.,1.8 ± 0.3
same,Horizontal activity,[5]; 2 mg/kg i.p.,10.2 ± 1.4
same,Surveyed holes,[5]; 2 mg/kg i.p.,6.5 ± 1.9
same,Vertical activity,[5]; 2 mg/kg i.p.,3.4 ± 1.3
same,Sedative effect in elevated plus-maze (in words),[6]; 2 mg/kg i.p.,"sedative, depriming effect"
same,Latent time,[6]; 2.0 mg/kg i.p.,7.68 ± 2.0 s
same,Number of entries into bright arms,[6]; 2.0 mg/kg i.p.,2.12 ± 1.08
same,Number of entries into dark arms,[6]; 2.0 mg/kg i.p.,2.20 ± 0.47
same,Time in bright arms,[6]; 2.0 mg/kg i.p.,25.6 ± 6.87 s
same,Total number of crossings,[6]; 2.0 mg/kg i.p.,4.32 ± 1.01
